Test results from US20230085307A1, “PYRIDAZINONE COMPOUND AND HERBICIDE” (NISSAN CHEMICAL CORPORATION, priority 2019, published 2023).

Legend:
windgrass = assay: Test Example 5: herbicidal effect by foliage application, plastic box (Table 20, symbol L); assay type: in vivo, windgrass (Apera spica-venti); details: foliage application, AAH 320 g/ha, evaluated three weeks after application
Outline: (§1)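 Plants were sown into sterilized diluvial soil under about 1.5 cm cover and kept in a greenhouse at 25° C. to 30° C. Fourteen days on, foliage received an even spray of the diluted emulsion. Herbicidal or crop effect was judged three weeks afterwards.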

velvetleaf [1] = assay: Test Example 5: herbicidal effect by foliage application, plastic box (Table 20, symbol M); assay type: in vivo, velvetleaf (Abutilon theophrasti); details: foliage application
From the text: (§2) [Test Example 5] Herbicidal Effect Test by Foliage Application
(§3) Sterilized diluvial soil was placed in a plastic box having a length of 21 cm, a width of 13 cm, and a depth of 7 cm. The seeds of each of southern crabgrass, green foxtail, barnyard grass, wild oat, blackgrass, Italian ryegrass, windgrass, velvetleaf, redroot pigweed, lambsquarters, chickweed, false cleavers, persian speedwell, corn, soybean, rice, wheat, beet, and rapeseed were sowed in a spot-like manner and covered with the soil having a thickness of about 1.5 cm. Thereafter, the plants were grown in a greenhouse at 25° C. to 30° C. After 14-day growth of the plants, the emulsion agent of the compound of the present invention prepared according to Formulation Example 2 was diluted with water so as to achieve a predetermined herbicide amount, and the diluted emulsion agent was uniformly applied to a foliage part with a small-sized spray. Three weeks after the herbicide application, the effect of the herbicide on each plant was evaluated according to the criteria of Test Example 1.

Chinese sprangletop = assay: Test Example 3: herbicidal effect by foliage application, Wagner pot (Table 18, symbol D); assay type: in vivo, chinese sprangletop (Leptochloa chinensis); details: amount of applied herbicide 320 g/ha
Outline: (§4)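 Plants were sown in alluvial soil held under 0.1–0.5 cm standing water and grown 14 days in a greenhouse at 25–30 °C. An emulsifiable formulation, water-diluted to the set dose, was then sprayed onto the foliage, and effects were scored three weeks later using previously defined criteria.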

wild oat = assay: Test Example 5: herbicidal effect by foliage application, plastic box (Table 20, symbol I); assay type: in vivo, wild oat (Avena fatua); details: foliage application, AAH 320 g/ha, evaluated three weeks after application
Outline: as §1

redroot pigweed [2] = assay: Test Example 5: herbicidal effect by foliage application, plastic box (Table 20, symbol N); assay type: in vivo, redroot pigweed (Amaranthus retroflexus); details: foliage application
From the text: as §2, §3

lambsquarters [3] = assay: Test Example 5: herbicidal effect by foliage application, plastic box (Table 20, symbol O); assay type: in vivo, lambsquarters (Chenopodium album); details: foliage application
Outline: as §1

chickweed = assay: Test Example 5: herbicidal effect by foliage application, plastic box (Table 20, symbol P); assay type: in vivo, common chickweed (Stellaria media); details: foliage application, AAH 320 g/ha, evaluated three weeks after application
From the text: as §2, §3

rice flat sedge = assay: Test Example 3: herbicidal effect by foliage application, Wagner pot (Table 18, symbol E); assay type: in vivo, rice flat sedge (Cyperus iria); details: amount of applied herbicide 320 g/ha
Outline: as §4

blackgrass = assay: Test Example 5: herbicidal effect by foliage application, plastic box (Table 20, symbol J); assay type: in vivo, blackgrass (Alopecurus myosuroides); details: foliage application, AAH 320 g/ha, evaluated three weeks after application
Outline: as §1

green foxtail [4] = assay: Test Example 5: herbicidal effect by foliage application, plastic box (Table 20, symbol G); assay type: in vivo, green foxtail (Setaria viridis); details: foliage application
Outline: as §1

barnyard grass [5] = assay: Test Example 5: herbicidal effect by foliage application, plastic box (Table 20, symbol H); assay type: in vivo, barnyard grass (Echinochloa crus-galli); details: foliage application
From the text: as §2, §3

Italian ryegrass = assay: Test Example 5: herbicidal effect by foliage application, plastic box (Table 20, symbol K); assay type: in vivo, Italian ryegrass (Lolium multiflorum); details: foliage application, AAH 320 g/ha, evaluated three weeks after application
Outline: as §1

barnyard grass [6] = assay: Test Example 3: herbicidal effect by foliage application, Wagner pot (Table 18, symbol H); assay type: in vivo, barnyard grass (Echinochloa crus-galli); details: amount of applied herbicide 320 g/ha
Outline: as §4

southern crabgrass [7] = assay: Test Example 5: herbicidal effect by foliage application, plastic box (Table 20, symbol F); assay type: in vivo, southern crabgrass (Digitaria ciliaris); details: foliage application
From the text: as §2, §3

green foxtail [8] = assay: Test Example 4: herbicidal effect by soil treatment (Table 19, symbol G); assay type: in vivo, green foxtail (Setaria viridis); details: amount of applied herbicide 320 g/ha
From the text: (§5) [Test Example 4] Herbicidal Effect Test by Soil Treatment
as §3, with “Subsequently,” for “Thereafter, the plants were grown in a greenhouse at 25° C. to 30° C. After 14-day growth of the plants,”, “the surface of the soil” for “a foliage part”, “spray. The plastic box was placed in a greenhouse at 25° C. to 30° C. for growth of the plants.” for “spray.”

velvetleaf [9] = assay: Test Example 4: herbicidal effect by soil treatment (Table 19, symbol M); assay type: in vivo, velvetleaf (Abutilon theophrasti); details: amount of applied herbicide 320 g/ha
From the text: as §5
as §3, with “Subsequently,” for “Thereafter, the plants were grown in a greenhouse at 25° C. to 30° C. After 14-day growth of the plants,”, “the surface of the soil” for “a foliage part”, “spray. The plastic box was placed in a greenhouse at 25° C. to 30° C. for growth of the plants.” for “spray.”

barnyard grass [10] = assay: Test Example 4: herbicidal effect by soil treatment (Table 19, symbol H); assay type: in vivo, barnyard grass (Echinochloa crus-galli); details: amount of applied herbicide 320 g/ha
From the text: as §5
as §3, with “Subsequently,” for “Thereafter, the plants were grown in a greenhouse at 25° C. to 30° C. After 14-day growth of the plants,”, “the surface of the soil” for “a foliage part”, “spray. The plastic box was placed in a greenhouse at 25° C. to 30° C. for growth of the plants.” for “spray.”

redroot pigweed [11] = assay: Test Example 4: herbicidal effect by soil treatment (Table 19, symbol N); assay type: in vivo, redroot pigweed (Amaranthus retroflexus); details: amount of applied herbicide 320 g/ha
From the text: as §5
as §3, with “Subsequently,” for “Thereafter, the plants were grown in a greenhouse at 25° C. to 30° C. After 14-day growth of the plants,”, “the surface of the soil” for “a foliage part”, “spray. The plastic box was placed in a greenhouse at 25° C. to 30° C. for growth of the plants.” for “spray.”

lambsquarters [12] = assay: Test Example 4: herbicidal effect by soil treatment (Table 19, symbol O); assay type: in vivo, lambsquarters (Chenopodium album); details: amount of applied herbicide 320 g/ha
From the text: as §5
as §3, with “Subsequently,” for “Thereafter, the plants were grown in a greenhouse at 25° C. to 30° C. After 14-day growth of the plants,”, “the surface of the soil” for “a foliage part”, “spray. The plastic box was placed in a greenhouse at 25° C. to 30° C. for growth of the plants.” for “spray.”

southern crabgrass [13] = assay: Test Example 4: herbicidal effect by soil treatment (Table 19, symbol F); assay type: in vivo, southern crabgrass (Digitaria ciliaris); details: amount of applied herbicide 320 g/ha
From the text: as §5
as §3, with “Subsequently,” for “Thereafter, the plants were grown in a greenhouse at 25° C. to 30° C. After 14-day growth of the plants,”, “the surface of the soil” for “a foliage part”, “spray. The plastic box was placed in a greenhouse at 25° C. to 30° C. for growth of the plants.” for “spray.”

[14] = AAH 320 g/ha, evaluated three weeks after application
[15] = 320 g/ha, three weeks after application

## COC(=O)COc1c(C)nn(C)c(=O)c1-c1c(-c2ccc(OC(F)F)cc2)sc2ccc(F)cc12 [2-306]
windgrass
  L: windgrass, herbicidal effect (criteria 0-5): 0 (Herbicidal rate of 5% or less (almost no effect))
Velvetleaf [1]; [14]
  M: velvetleaf, herbicidal effect (criteria 0-5): 0 (Herbicidal rate of 5% or less (almost no effect))
Chinese sprangletop
  herbicidal effect on D: Chinese sprangletop: 3 (Herbicidal rate of 40% or more and less than 70%)
Wild oat
  I: wild oat, herbicidal effect (criteria 0-5): 0 (Herbicidal rate of 5% or less (almost no effect))
Redroot pigweed [2]; [14]
  N: redroot pigweed, herbicidal effect (criteria 0-5): 0 (Herbicidal rate of 5% or less (almost no effect))
Lambsquarters [3]; [14]
  O: lambsquarters, herbicidal effect (criteria 0-5): 2 (Herbicidal rate of 20% or more and less than 40%)
chickweed
  P: chickweed, herbicidal effect (criteria 0-5): 5 (Herbicidal rate of 90% or more (almost completely withered))
Rice flat sedge
  herbicidal effect on E: rice flat sedge: 3 (Herbicidal rate of 40% or more and less than 70%)
blackgrass
  J: blackgrass, herbicidal effect (criteria 0-5): 0 (Herbicidal rate of 5% or less (almost no effect))
Green foxtail [4]; [14]
  G: green foxtail, herbicidal effect (criteria 0-5): 0 (Herbicidal rate of 5% or less (almost no effect))
Barnyard grass [5]; [14]
  H: barnyard grass, herbicidal effect (criteria 0-5): 0 (Herbicidal rate of 5% or less (almost no effect))
Italian ryegrass
  K: Italian ryegrass, herbicidal effect (criteria 0-5): 0 (Herbicidal rate of 5% or less (almost no effect))
Barnyard grass [6]
  herbicidal effect on H: barnyard grass: 3 (Herbicidal rate of 40% or more and less than 70%)
Southern crabgrass [7]; [14]
  F: southern crabgrass, herbicidal effect (criteria 0-5): 0 (Herbicidal rate of 5% or less (almost no effect))

## COCCOc1ccc(-c2sc3ccc(F)cc3c2-c2c(O)c(N)nn(C)c2=O)cc1 [2-456]
Velvetleaf [1]; [15]
  M: velvetleaf, herbicidal effect grade: 3 (Herbicidal rate of 40% or more and less than 70%)
Chinese sprangletop
  herbicidal effect on D: Chinese sprangletop: 0 (Herbicidal rate of 5% or less (almost no effect))
Green foxtail [8]
  herbicidal effect, G: green foxtail: 0 (Herbicidal rate of 5% or less (almost no effect))
Redroot pigweed [2]; [15]
  N: redroot pigweed, herbicidal effect grade: 4 (Herbicidal rate of 70% or more and less than 90%)
Velvetleaf [9]
  herbicidal effect, M: velvetleaf: 0 (Herbicidal rate of 5% or less (almost no effect))
Barnyard grass [10]
  herbicidal effect, H: barnyard grass: 0 (Herbicidal rate of 5% or less (almost no effect))
Lambsquarters [3]; [15]
  O: lambsquarters, herbicidal effect grade: 3 (Herbicidal rate of 40% or more and less than 70%)
Rice flat sedge
  herbicidal effect on E: rice flat sedge: 0 (Herbicidal rate of 5% or less (almost no effect))
Redroot pigweed [11]
  herbicidal effect, N: redroot pigweed: 5 (Herbicidal rate of 90% or more (almost completely withered))
Green foxtail [4]; [15]
  G: green foxtail, herbicidal effect grade: 1 (Herbicidal rate of 5% or more and less than 20%)
Barnyard grass [5]; [15]
  H: barnyard grass, herbicidal effect grade: 2 (Herbicidal rate of 20% or more and less than 40%)
Lambsquarters [12]
  herbicidal effect, O: lambsquarters: 3 (Herbicidal rate of 40% or more and less than 70%)
Southern crabgrass [13]
  herbicidal effect, F: southern crabgrass: 0 (Herbicidal rate of 5% or less (almost no effect))
Barnyard grass [6]
  herbicidal effect on H: barnyard grass: 3 (Herbicidal rate of 40% or more and less than 70%)
Southern crabgrass [7]; [15]
  F: southern crabgrass, herbicidal effect grade: 0 (Herbicidal rate of 5% or less (almost no effect))
